Data from patent US5612327A, “1α,24-(OH)2 -cholecalciferol emulsion composition and method for treating psoriasis” (priority 1993, dated 1997).

Tests used:
[1] = Solubility and chemical stability of 1α,24-(OH)2 --V.D3; type: physicochemical; settings: non-polar solvent
[2] = tested on: excised skin (full skin) of Wistar rat; test: Skin permeability of active ingredient from cream composition; type: in vitro ADME; settings: 0.25 part by weight in bases of Examples 1, 4, 5 and Control Examples 14 to 21; Test Method 3
Text: For the skin, use was made of skin cut off from a dilapidated Wistar rat (full skin=including stratum corneum, epidermis, and dermis). For the reservoir solution, use was made of Hanks buffer (pH=7.4) plus 10% bovine fetal serum. […] (For the method of assay, see below.)

## C=C1C(=CC=C2CCCC3(C)C2CCC3C(C)CCC(O)C(C)C)CC(O)CC1O (stereo not drawn) [1α,24-(OH)2 --V.D3, 1α,24-dihydroxylcholecalciferol]
[1]
  Solubility (in words): does not dissolve much at all in a non-polar solvent

## CC(=O)OCC(=O)[C@@]1(O)CC[C@H]2[C@@H]3CCC4=CC(=O)CC[C@]4(C)[C@H]3[C@@H](O)C[C@@]21C [hydrocortisone acetate]
[2]
  Skin permeability of hydrocortisone acetate (in words): almost completely unrelated to the weight ratio of the stearyl alcohol and cetyl alcohol
